Numbers after ± are expanded uncertainties.
Conditions: 298.15 K; 101.33 kPa; Crystal; PPMS instrument (Quantum Design)

O=P([O-])([O-])[O-].[La+3] [lanthanum orthophosphate] gave a molar entropy of 108.24 ± 4.9 J/K/mol.

Work on O=P([O-])([O-])[O-].[Gd+3] [gadolinium orthophosphate] yielded a molar entropy of 124.57 ± 5.6 J/K/mol.

Reference: the NIST ThermoML archive (doi:10.1016/j.jct.2004.07.031)
